Paper PMC5343011, “Phenol-Soluble Modulin α Peptide Toxins from Aggressive Staphylococcus aureus Induce Rapid Formation of Neutrophil Extracellular Traps through a Reactive Oxygen Species-Independent Pathway” (Frontiers in Immunology, 2017)

What was measured:
[1] = tested on: neutrophils; test: Sytox Green DNA release / NET formation; format: cell-based, human
Experimental: Peripheral blood neutrophils were isolated from 1-day-old buffy coats from healthy blood donors or from peripheral blood from patients and healthy controls. Neutrophil separation was performed as first described by Boyum ([23]). Briefly, after dextran, sedimentation at 1 × g the suspension was centrifuged on Ficoll-Paque, and the remaining erythrocytes were lysed by hypotonic treatment. The neutrophils were then washed in Krebs Ringer phosphate buffer (KRG) and finally resuspended in KRG supplemented with Ca^2+ (1 mM) and kept on melting ice until used. Buffy coats were obtained from the Sahlgrenska University Hospital blood bank after deidentification, and according to the Swedish legislation section code 4§ 3 p SFS2003:460, no informed consent is needed. Peripheral blood from one MPO-deficient individual, one patient with Papillon-Lefèvre syndrome, and healthy controls were obtained after written informed consent, and the study was approved by the Regional Ethical Review Board in Gothenburg, Sweden.
Cells (5 × 10^4 cells/well) in RPMI (without phenol red) and the Sytox Green DNA stain (1.25 μM; Molecular Probes) were added to black 96-well plates and incubated at 37°C and 5% CO2 ([5]). Inhibitors, PBP10 (CASLO Laboratory) or diphenyleneiodonium chloride (DPI; Sigma-Aldrich), were preincubated with cells for 10 min at 37°C and 5% CO2 prior to stimulation. Sytox Green fluorescence was measured at indicated time points at 485/535 nm in a Mithras LB940 (Berthold Technologies) or in a CLARIOstar plate reader (BMG Labtech).

[2] = tested on: neutrophils; test: Plasma membrane disruption by lactate dehydrogenase (LDH) release; format: cell-based, human; details: 10 min, 37°C, relative to Triton X-100-treated samples, two independent experiments in triplicates
Experimental: Neutrophils (2 × 10^6 cells/ml) were incubated with PSMα2 or hexadecyltrimethylammonium bromide (CTAB, Sigma) for 10 min at 37°C. LDH was measured in the supernatants with cytotoxicity detection kit (LDH, Roche) as described in Ref. ([25]).

[3] = tested on: neutrophils; details: cited from earlier work
Excerpt: Further, we have shown that enzymatic conversion of ROS by MPO inside granules is a prerequisite for PMA-induced NET formation ([10]). We thus investigated whether MPO was required for PSMα-induced NET formation by using neutrophils from a completely MPO-deficient donor [previously described in Ref. ([10])] that was sampled at two occasions (with nearly identical results). Neutrophils fro ...

[4] = tested on: A375 melanoma cells; test: Microscopic visualization of melanoma cells (DAPI); format: cell-based, human; details: PSMα2 or PSMα3 2.5 μM for 1 h, PMA 50 nM for 3 h, three independent experiments
Experimental: The human melanoma cell line A375 was a kind gift from Professor Jonas A. Nilsson (Sahlgrenska Cancer Center, University of Gothenburg, Sweden). The cells were cultured in DMEM with 10% FCS, 100 U/ml penicillin, and 100 μg/ml streptomycin at 37°C and 5% CO2. Before being used experimentally, the cells were detached from the flasks’ surface by incubation with 0.25% trypsin in 37°C for 10 min followed by washing and resuspension in RPMI culture media.
(§1) Neutrophils or human A375 melanoma cells (2.5 × 10^5 cells/well) were suspended in RPMI and added to poly-lysine-coated coverslips. After stimulation with PMA (50 nM; Sigma-Aldrich) or PSMα (indicated concentrations), the cells were incubated at 37°C in the presence of 5% CO2 or at 4°C for indicated time. To visualize NETs, samples were fixed in 4% paraformaldehyde for 30 min at room temperature and stained with antibodies against MPO (DAKO), NE (Calbiochem), or Histone-1 (Acris) followed by secondary antibody staining. Finally, the coverslips were incubated with DAPI (1 μg/ml) for 5 min and then mounted in ProLong Gold antifade (Molecular Probes). […]

[5] = tested on: neutrophils; test: Nuclear membrane integrity (SUN2 staining, confocal microscopy); format: cell-based, human; details: SUN2 and DNA staining, three independent experiments
Experimental: as §1, with “Probes). For nuclear morphology experiments, neutrophils were incubated with PSMα2 for 10 min or with PMA for 30 min or 2 h, the cells were fixed on ice with 4% paraformaldehyde, permeabilized with cold acetone and methanol (1:1) for 5 min, and stained with SUN2 antibody (Abcam) followed by secondary antibody staining. To visualize microbes in the NETs, we used green fluorescent protein (GFP)-expressing Candida albicans, strain CAI4 containing a C. albicans-specific pENO1-GFP-CyC1t plasmid ([26]), or S. aureus, strain RN4220 containing the pCN-GFP plasmid that was a kind gift from Dr. Maria Lerm (Linköping University, Sweden).” for “Probes).”

[6] = tested on: Formyl peptide receptor (FPR) 1 / FPR2; details: receptor through which the peptide activates neutrophils; dash = inactive; cited from earlier work
Excerpt: Table 1 Peptide sequences and receptor preferences of PSMα2. | column: Receptor preference^a

CCCCCCCCCCCCCCCC[N+](C)(C)C [CTAB, hexadecyltrimethylammonium bromide]
NET formation (Sytox Green fluorescence) after detergent treatment ([1]; 10 min, two independent experiments in triplicates): did not cause NET formation
LDH release [2]: close to maximal

CCCCCCCCCCCCCC(=O)O[C@@H]1[C@@H](C)[C@@]2(O)[C@@H](C=C(CO)C[C@]3(O)C(=O)C(C)=C[C@@H]23)[C@@H]2C(C)(C)[C@]12OC(C)=O [PMA, phorbol myristate acetate]
NET formation by neutrophils from a completely MPO-deficient donor in response to PMA [3]: unable to form NETs
Extracellular DNA release from melanoma cells [4]: did not induce any DNA expulsion
Stimulation time at which disruption of nuclear membranes was first observed [5]: 2 h
Time to increase in Sytox green fluorescence ([1]; PMA 50 nM, 37°C, three independent experiments): 3 h

f-MGIIAGIIKF [1–10, shorter PSMα2 variant, amino acids 1–10]
Receptor preference [6]: FPR1

f-MGIIAGIIKFIKGLIE [1–16, shorter PSMα2 variant, amino acids 1–16]
Receptor preference [6]: FPR2

c1ccc2c(c1)[I+]c1ccccc1-2 [DPI, diphenyleneiodonium chloride]
Effect of NADPH oxidase inhibitor on PMA-induced NET formation ([1]; PMA 50 nM, DPI 10 μM, three independent experiments): potently inhibited
Effect of NADPH oxidase inhibitor on PSMα-induced NETs ([1]; PSMα2 2.5 μM, DPI 10 μM, three independent experiments): without effect

f-MGIIA [1–5, shorter PSMα2 variant, amino acids 1–5]
Receptor preference [6]: Formyl peptide receptor (FPR) 1

f-MGIIAGIIKFIK [1–12, shorter PSMα2 variant, amino acids 1–12]
Receptor preference [6]: FPR1/FPR2
